Holding throughout (assay): Test A preemergence
Common to all, as to assay type: in vivo

For test [1], the system named is pigweed (Amaranthus retroflexus). The note with it: Amaranthus retroflexus, pre-emergence, 240 h; for pest or weed control at 125 g/ha: 125 g ai/ha; for pest or weed control at 500 g/ha: 500 g ai/ha.
Test [2] concerns Kochia (Kochia scoparia). Particulars: Bassia scoparia, pre-emergence, 240 h; for pest or weed control at 125 g/ha: 125 g ai/ha; for pest or weed control at 500 g/ha: 500 g ai/ha. In short, it runs like this: (§1)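 In a loam soil and sand blend, planted seeds got a preemergence directed soil spray, and young plants at the one- to two-leaf stage, 2–10 cm high, got a postemergence application; ~10 d greenhouse hold; injury rated visually, 0 = none, 100 = complete control.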

For test [3], the system named is ragweed (common ragweed, Ambrosia elatior). The note with it: Ambrosia artemisiifolia, pre-emergence, 240 h; for pest or weed control at 125 g/ha: 125 g ai/ha; for pest or weed control at 500 g/ha: 500 g ai/ha. The method, boiled down: as §1
Test [4] relates to giant foxtail (Setaria faberii). The note with it: Setaria faberi, pre-emergence, 240 h; for pest or weed control at 125 g/ha: 125 g ai/ha; for pest or weed control at 500 g/ha: 500 g ai/ha. The method, boiled down: as §1
The subject of test [5] is barnyardgrass (Echinochloa crus-galli). Particulars: Echinochloa crus-galli, pre-emergence, 240 h; for pest or weed control at 125 g/ha: 125 g ai/ha; for pest or weed control at 500 g/ha: 500 g ai/ha. In short, it runs like this: as §1
The mark [6] stands for this setting: preemergence, visual injury rating, 0 to 100 scale where 0 is no effect and 100 is complete control, approximately 10 d, read-out: Pigweed plant response rating.
The mark [7] stands for this setting: preemergence, 0 to 100 scale where 0 is no effect and 100 is complete control, read-out: Pigweed plant response rating.
The mark [8] stands for this setting: preemergence, visual injury rating, 0 to 100 scale where 0 is no effect and 100 is complete control, approximately 10 d, read-out: Kochia plant response rating.
[9] abbreviates: preemergence, 0 to 100 scale where 0 is no effect and 100 is complete control, read-out: Kochia plant response rating.
Setting [10] is: preemergence, visual injury rating, 0 to 100 scale where 0 is no effect and 100 is complete control, approximately 10 d, read-out: Ragweed plant response rating.
Setting [11] is: preemergence, 0 to 100 scale where 0 is no effect and 100 is complete control, read-out: Ragweed plant response rating.
Setting [12] is: preemergence, visual injury rating, 0 to 100 scale where 0 is no effect and 100 is complete control, approximately 10 d, read-out: Foxtail, Giant plant response rating.
Where [13] appears, read: preemergence, 0 to 100 scale where 0 is no effect and 100 is complete control, read-out: Foxtail, Giant plant response rating.
[14] abbreviates: preemergence, visual injury rating, 0 to 100 scale where 0 is no effect and 100 is complete control, approximately 10 d, read-out: Barnyardgrass plant response rating.
The mark [15] stands for this setting: preemergence, 0 to 100 scale where 0 is no effect and 100 is complete control, read-out: Barnyardgrass plant response rating.
Setting [16] is: Preemergence, 0 to 100 scale (0 no effect, 100 complete control), read-out: Plant response rating, Pigweed.
The mark [17] stands for this setting: Preemergence, 0 to 100 scale (0 no effect, 100 complete control), read-out: Plant response rating, Kochia.
Setting [18] is: Preemergence, 0 to 100 scale (0 no effect, 100 complete control), read-out: Plant response rating, Ragweed.
Setting [19] is: Preemergence, 0 to 100 scale (0 no effect, 100 complete control), read-out: Plant response rating, Foxtail, Giant.
Where [20] appears, read: Preemergence, 0 to 100 scale (0 no effect, 100 complete control), read-out: Plant response rating, Barnyardgrass.

Like-named read-outs stand apart in the source and are kept apart here.

Consider `Cc1cc([C@H]2CNC(=O)[C@@H]2C(=O)Nc2ccccc2S(C)(=O)=O)ccc1Cl` [Compound 1246], for which the pest or weed control at 125 g/ha stood at 0% in test [1] (setting [6]); 60% in test [2] (setting [8]); 40% in test [3] (setting [10]); 50% in test [4] (setting [12]); 60% in test [5] (setting [14]). Further, the pest or weed control at 500 g/ha in test [1] (setting [7]) came out at 0%; in test [2] (setting [9]) it was 80%; in test [3] (setting [11]) it was 60%; in test [4] (setting [13]), 70%; in test [5] (setting [15]) it was 80%.
As for `CN1C[C@H](c2cccc(C(F)(F)F)c2)[C@@H](C(=O)Nc2ccc(F)cc2C(F)(F)F)C1=O` [Compound 1250], the pest or weed control at 125 g/ha is 30% in test [1] (setting [6]); 0% in test [2] (setting [8]); 0% in test [3] (setting [10]); 100% in test [4] (setting [12]); 100% in test [5] (setting [14]). Further, the pest or weed control at 500 g/ha in test [1] (setting [7]) was 30%; in test [2] (setting [9]) it was 40%; in test [3] (setting [11]), 0%; in test [4] (setting [13]) it was 100%; in test [5] (setting [15]), 100%.
Take `CN1C[C@H](c2ccc(C(F)(F)F)cc2)[C@@H](C(=O)Nc2ccccc2)C1=O` [Compound 1253]: the pest or weed control at 125 g/ha in test [1] (setting [6]) turned out to be 50%; in test [2] (setting [8]), 80%; in test [3] (setting [10]), 40%; in test [4] (setting [12]) it was 100%; in test [5] (setting [14]), 90%. Also, the pest or weed control at 500 g/ha was 80% in test [1] (setting [7]); 80% in test [2] (setting [9]); 60% in test [3] (setting [11]); 100% in test [4] (setting [13]); 100% in test [5] (setting [15]).
With `Cc1nc([C@H]2CN(C)C(=O)[C@@H]2C(=O)Nc2ccccc2F)cs1` [Compound 1280], the pest or weed control at 125 g/ha in test [1] (setting [6]), in test [2] (setting [8]), in test [3] (setting [10]), in test [4] (setting [12]) and in test [5] (setting [14]) was 0% each time. For the same molecule, the pest or weed control at 500 g/ha stood at 30% in test [1] (setting [7]); 0% in test [2] (setting [9]); 0% in test [3] (setting [11]); 80% in test [4] (setting [13]); 50% in test [5] (setting [15]).
`COc1cc([C@H]2CN(C)C(=O)[C@@H]2C(=O)Nc2ccccc2S(C)(=O)=O)ccc1F` [Compound 1302]: the pest or weed control at 125 g/ha in test [1] (setting [6]) is 0%; in test [2] (setting [8]), 0%; in test [3] (setting [10]), 0%; in test [4] (setting [12]), 90%; in test [5] (setting [14]), 60%. For the same molecule, the pest or weed control at 500 g/ha in test [1] (setting [7]) was determined as 30%; in test [2] (setting [9]), 60%; in test [3] (setting [11]), 50%; in test [4] (setting [13]), 90%; in test [5] (setting [15]) it was 90%.
For `CSc1ccccc1NC(=O)[C@H]1C(=O)NC[C@@H]1c1cc(C)cc(F)c1` [Compound 1306], the pest or weed control at 125 g/ha in test [1] (setting [6]) was 0%; in test [2] (setting [8]), 0%; in test [3] (setting [10]), 40%; in test [4] (setting [12]) it was 30%; in test [5] (setting [14]), 60%. Moreover, the pest or weed control at 500 g/ha in test [1] (setting [7]) is 0%; in test [2] (setting [9]), 70%; in test [3] (setting [11]), 60%; in test [4] (setting [13]) it was 90%; in test [5] (setting [15]), 90%.
With `Cc1cc(F)cc([C@H]2CNC(=O)[C@@H]2C(=O)Nc2ccccc2S(C)(=O)=O)c1` [Compound 1307], the pest or weed control at 125 g/ha was 0% in test [1] (setting [6]), 20% in test [2] (setting [8]), 50% in test [4] (setting [12]) and 80% in test [5] (setting [14]). Also, the pest or weed control at 500 g/ha was 0% in test [1] (setting [7]); 90% in test [2] (setting [9]); 60% in test [3] (setting [11]); 90% in test [4] (setting [13]); 90% in test [5] (setting [15]).
For `Cc1cc(F)cc([C@H]2CNC(=O)[C@@H]2C(=O)Nc2cccc(F)c2C)c1` [Compound 1308], the pest or weed control at 125 g/ha in test [1] (setting [6]) was found to be 0%; in test [2] (setting [8]) it was 0%; in test [3] (setting [10]) it was 0%; in test [4] (setting [12]), 90%; in test [5] (setting [14]) it was 90%. For the same molecule, the pest or weed control at 500 g/ha in test [1] (setting [7]) turned out to be 20%; in test [2] (setting [9]), 50%; in test [3] (setting [11]), 70%; in test [4] (setting [13]) it was 90%; in test [5] (setting [15]) it was 90%.
As to `Cc1cc(F)cc([C@H]2CNC(=O)[C@@H]2C(=O)Nc2cccc(F)c2F)c1` [Compound 1309], the pest or weed control at 500 g/ha in test [1] (setting [7]) was 20%; in test [2] (setting [9]), 60%; in test [3] (setting [11]), 50%; in test [4] (setting [13]), 90%; in test [5] (setting [15]) it was 90%. Also, the pest or weed control at 125 g/ha is 0% in test [1] (setting [16]); 60% in test [2] (setting [17]); 40% in test [3] (setting [18]); 80% in test [4] (setting [19]); 90% in test [5] (setting [20]).
Regarding `CSc1ccccc1NC(=O)[C@H]1C(=O)N(C)C[C@@H]1c1ccc(F)c(C)c1` [Compound 1312], the pest or weed control at 500 g/ha was 60% in test [1] (setting [7]); 80% in test [2] (setting [9]); 100% in test [3] (setting [11]); 100% in test [4] (setting [13]); 100% in test [5] (setting [15]). Also, the pest or weed control at 125 g/ha was found to be 20% in test [1] (setting [16]); 50% in test [2] (setting [17]); 70% in test [3] (setting [18]); 90% in test [4] (setting [19]); 90% in test [5] (setting [20]).
As for `CN1C[C@H](c2ccc3c(c2)CCO3)[C@@H](C(=O)Nc2ccccc2F)C1=O` [Compound 1321], the pest or weed control at 500 g/ha stood at 0% in test [1] (setting [7]); 80% in test [2] (setting [9]); 50% in test [3] (setting [11]); 100% in test [4] (setting [13]); 100% in test [5] (setting [15]). For the same molecule, the pest or weed control at 125 g/ha in test [1] (setting [16]) is 0%; in test [2] (setting [17]), 50%; in test [3] (setting [18]) it was 50%; in test [4] (setting [19]), 90%; in test [5] (setting [20]), 90%.

For the origin of these results see patent publication US12077503B2, “Substituted cyclic amides and their use as herbicides” (FMC CORPORATION, priority 2015, dated 2024).
